Data from PMC8253220, “Molecular design, synthesis and in vitro biological evaluation of thienopyrimidine–hydroxamic acids as chimeric kinase HDAC inhibitors: a challenging approach to combat cancer” (Journal of Enzyme Inhibition and Medicinal Chemistry, 2021).
pIC50: −log10 of the molar value. “And” between values parts separate entries of the source, which are not always exact repeats. Equal values may be shown once.

Legend:
Hela nuclear extracts = test: Hela nuclear extract HDAC inhibitor assay (BPS Bioscience); type: biochemical; conditions: 10 µM
Summary of the method: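 HeLa nuclear extract (20-fold diluted) was incubated with […] HDAC Substrate 3, 5 µg BSA and compound (1% DMSO final) at 37 °C for 60 min, in duplicate. After 15 min with HDAC developer at room temperature, fluorescence was read at 360/460 nm and % activity normalized to no-compound and no-extract controls.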

TK-10 = test: NCI one-dose screen; type: cell-based, human; conditions: Renal TK-10, 10 µM single dose
Description: (§1) All of the synthesised structures were selected and submitted to NCI based on computer modelling techniques and the degree of diversity of structures for the evaluation of their antiproliferative activity. The 20 synthesised compounds were selected with their respective NCI codes [NCS D-820157- NCS D-820176] for the inhibition percent assay at an initial single dose of 10 μM on the full NCI 60 cell panel, where the mean graph of the percent growth for all compounds on the full NCI cell panel is evaluated, compared to the untreated control cells (Supplementary Material). In vitro cell line inhibition % of all synthesised compounds is represented in (Table 1 of Supplementary Material).
(§2) All of the synthesised compounds (20) were submitted to NCI and selected for in vitro anticancer assay against a panel of 60 cancer cell lines. The methodology of assay and calculations is as reported.

M14 = test: NCI one-dose screen; type: cell-based, human; conditions: Melanoma M14, 10 µM single dose
Description: as §1, §2

786-0 = test: NCI one-dose screen; type: cell-based, human; conditions: Renal 786-0, 10 µM single dose
Description: as §1, §2

EKVX = test: NCI one-dose screen; type: cell-based, human; conditions: NSCLC EKVX; for Growth Percent: 10 µM single dose
Description: as §1, §2

CCRF-CEM = test: NCI one-dose screen; type: cell-based, human; conditions: Leukemia CCRF-CEM, 10 µM single dose
Description: as §1, §2

SK-MEL-5 = test: NCI one-dose screen; type: cell-based, human; conditions: Melanoma SK-MEL-5, 10 µM single dose
Description: as §1, §2

UACC-62 = test: NCI one-dose screen; type: cell-based, human; conditions: Melanoma UACC-62, 10 µM single dose
Description: as §1, §2

NCI/ADR-RES = test: NCI one-dose screen; type: cell-based, human; conditions: Ovarian NCI/ADR-RES, 10 µM single dose
Description: as §1, §2

OVCAR-4 = test: NCI one-dose screen; type: cell-based, human; conditions: Ovarian OVCAR-4, 10 µM single dose
Description: as §1, §2

HCT-15 = test: NCI one-dose screen; type: cell-based, human; conditions: Colon HCT-15, 10 µM single dose
Description: as §1, §2

full NCI 60 cell panel = test: NCI one-dose screen, whole panel statistics; type: cell-based, human; conditions: 1.00E-5 Molar; for Mean Growth Percent: mean over panel
Description: as §1, §2

EGFR = EGFR (Homo sapiens, UniProt P00533); test: In vitro EGFR tyrosine kinase inhibitory assay (Z'-LYTE, SelectScreen); type: biochemical; conditions: for inhibition at 0.0001 µM: 0.1 nM compound; for inhibition at 0.0001 µM / inhibition at 0.001 µM / inhibition at 0.01 µM / inhibition at 0.1 µM / inhibition at 1 µM: 10 μM ATP, read-out: % Inhibition mean, EGFR (ErbB1); for inhibition at 0.001 µM: 1 nM compound; for inhibition at 0.01 µM: 10 nM compound; for inhibition at 0.1 µM: 100 nM compound; for inhibition at 1 µM: 1000 nM compound; for pIC50: read-out: IC50 in enzyme assays EGFR
EGFR, sequence (P00533 25-1210): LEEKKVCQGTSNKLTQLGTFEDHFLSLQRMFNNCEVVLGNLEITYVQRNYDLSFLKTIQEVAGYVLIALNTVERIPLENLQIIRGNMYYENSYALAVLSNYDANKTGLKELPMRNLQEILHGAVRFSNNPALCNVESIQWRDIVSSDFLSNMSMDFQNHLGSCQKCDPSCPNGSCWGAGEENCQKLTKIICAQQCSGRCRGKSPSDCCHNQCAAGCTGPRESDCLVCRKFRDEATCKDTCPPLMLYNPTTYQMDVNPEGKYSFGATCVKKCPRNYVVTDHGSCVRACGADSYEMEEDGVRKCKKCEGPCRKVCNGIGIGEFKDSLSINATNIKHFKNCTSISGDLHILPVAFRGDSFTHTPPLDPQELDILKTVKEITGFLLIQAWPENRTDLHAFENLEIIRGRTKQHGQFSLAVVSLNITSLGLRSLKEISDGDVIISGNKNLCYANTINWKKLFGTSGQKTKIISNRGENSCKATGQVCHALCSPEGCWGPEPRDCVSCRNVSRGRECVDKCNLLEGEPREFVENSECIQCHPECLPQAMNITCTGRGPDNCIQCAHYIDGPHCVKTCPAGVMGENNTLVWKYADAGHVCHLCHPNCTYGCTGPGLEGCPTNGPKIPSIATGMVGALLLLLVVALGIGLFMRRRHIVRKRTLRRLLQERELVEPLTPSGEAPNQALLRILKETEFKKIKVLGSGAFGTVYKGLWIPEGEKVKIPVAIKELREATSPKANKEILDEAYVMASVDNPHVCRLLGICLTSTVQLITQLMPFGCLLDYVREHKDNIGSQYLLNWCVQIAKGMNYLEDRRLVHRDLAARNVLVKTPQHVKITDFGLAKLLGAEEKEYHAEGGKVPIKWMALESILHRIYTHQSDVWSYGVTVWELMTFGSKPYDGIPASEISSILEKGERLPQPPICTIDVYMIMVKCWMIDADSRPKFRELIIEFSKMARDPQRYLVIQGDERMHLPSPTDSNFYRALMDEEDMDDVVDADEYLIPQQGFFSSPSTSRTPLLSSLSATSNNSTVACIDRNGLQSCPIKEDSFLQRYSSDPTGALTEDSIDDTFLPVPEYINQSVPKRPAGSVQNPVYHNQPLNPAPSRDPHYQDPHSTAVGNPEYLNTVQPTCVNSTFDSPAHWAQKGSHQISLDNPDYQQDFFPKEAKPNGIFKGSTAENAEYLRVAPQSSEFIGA
Description: The target compounds were evaluated for their in vitro inhibitory activities against EGFR, VEGFR-2, and HDAC6. The EGFR and VEGFR-2 inhibitory assays were performed at Thermo Fischer Scientific, Madison, WI, USA (SelectScreenServices@thermofisher.com). The HDAC inhibitory assays were performed at BPS Bioscience, San Diego, CA, USA (www.bpsbioscience.com). Initially, all of the synthesised target compounds were evaluated for their percent inhibitory activity against EGFR, VEGFR-2, and HDACs at 10 µM single dose concentration, in which their mean percent inhibition is summarised in (Figure 5, Tables 1 and [2]). Representative compounds were evaluated for their percent inhibitory activity against EGFR and VEGFR-2 at 6 different concentrations (0.1 nM, 1 nM, 10 nM, 100 nM, 1 µM, 10 µM) to subsequently calculate their IC50 values (Table 3). Additionally, all of the synthesised target compounds were submitted to the National Cancer Institute “NCI” Bethesda, Maryland, USA (www.dtp.nci.nih.gov), to evaluate theirs in vitro antiproliferative activities against NCI 60- cancer cell line panel.
In vitro enzyme inhibition determination for the synthesised compounds was carried out in Thermo Fischer Scientific, Madison, WI, USA (SelectScreenServices@thermofisher.com). The EGFR and VEGFR-2 tyrosine kinase % inhibitory activity at a single-dose concentration of 10 µM was performed initially then representative compounds were evaluated at single-dose concentrations of (0.1 nM, 1 nM, 10 nM, 100 nM, 1 µM) using ZYLTE technology. A fluorescence-based, coupled-enzyme format is employed in the biochemical assay and depends on the sensitivity of proteolytic cleavage to non-phosphorylated and phosphorylated peptides. Then IC50 values for selected compounds were determined by GraphPad Prism at Misr international university.

Compound | % Inhibition Hela Nuclear Extracts (Hela nuclear extracts) [%] | Growth Percent (TK-10) | Growth Percent (M14) | Growth Percent (786-0) | Growth Percent (EKVX) | Growth Percent (CCRF-CEM) | Growth Percent (SK-MEL-5) | Growth Percent (UACC-62) | Growth Percent (NCI/ADR-RES) | Growth Percent (OVCAR-4) | Growth Percent (HCT-15) | melting point [°C] | Delta (one dose mean graph) (full NCI 60 cell panel) [%] | Range (one dose mean graph) (full NCI 60 cell panel) [%] | Mean Growth Percent (full NCI 60 cell panel) [%] | inhibition at 10 µM (EGFR; 10 µM single dose) [%] | other results
Cc1c(C(=O)NO)sc2ncnc(Nc3cccc4[nH]cnc34)c12 [Compound 15a, 4-(1H-benzo[d]imidazol-4-ylamino)-N-hydroxy-5-methylthieno[2,3-d]pyrimidine-6-carboxamide] | 3 | 113.8% and 113.84% | 106.5% and 106.58% | 102.1% and 102.13% | 98.4% and 98.44% | 110.7% and 110.72% | 101.5% and 101.54% | 94.2% and 94.26% | 102.6% and 102.67% | 111.9% and 111.94% | 102.15% | 280 | 22.48 | 43.89 | 103.12 | 45 | –
Cc1c(C(=O)NO)sc2ncnc(Nc3ccccc3)c12 [Compound 15b, N-hydroxy-5-methyl-4-(phenylamino)thieno[2,3-d]pyrimidine-6-carboxamide] | 9 | 123.2% and 123.28% | 100.4% and 100.48% | 98.6% and 98.65% | 92.7% and 92.76% | 98.7% and 98.78% | 99.0% and 99.02% | 92.5% and 92.58% | 96.1% and 96.17% | 94.7% and 94.72% | 91.3% and 91.34% | 200 | 24.31 | 53.05 | 97.09 | 98 | –
Cc1c(C(=O)NO)sc2ncnc(Nc3ccc(Cl)cc3)c12 [Compound 15c, 4–(4-chlorophenylamino)-N-hydroxy-5-methylthieno[2,3-d]pyrimidine-6-carboxamide] | 4 | 154.5% and 154.58% | 107.8% and 107.86% | 108.7% and 108.78% | 79.4% and 79.43% | 103.4% and 103.44% | 96.9% and 96.96% | 92.4% and 92.45% | 102.1% and 102.16% | 106.3% and 106.34% | 101.7% and 101.72% | 349 | 28.53 | 83.38 | 99.73 | – | inhibition at 10 µM (EKVX; Homo sapiens, 10 μM): 20.6%; inhibition at 0.0001 µM (EGFR): 0%; inhibition at 0.001 µM (EGFR): 5%; inhibition at 0.01 µM (EGFR): 34%; inhibition at 0.1 µM (EGFR): 81%; inhibition at 1 µM (EGFR): 95%; Mean % inhibition EGFR (EGFR; 10 µM single dose): 97%; pIC50 (EGFR): 7.72
Cc1c(C(=O)NCCC(=O)NO)sc2ncnc(Nc3ccccc3)c12 [Compound 19b, N-(3-(hydroxyamino)-3-oxopropyl)-5-methyl-4-(phenylamino)thieno[2,3-d]pyrimidine-6-carboxamide] | 5 | 108.2% and 108.29% | 106.1% and 106.19% | 102.5% and 102.58% | 87.3% and 87.34% | 101.13% | 94.4% and 94.42% | 95.6% and 95.69% | 97.2% and 97.26% | 104.9% and 104.94% | 95.0% and 95.07% | 267 to 270 | 19.11 | 40.57 | 100.57 | 76 | –
Cc1c(C(=O)NCCC(=O)NO)sc2ncnc(Nc3ccc(Cl)cc3)c12 [Compound 19c, 4–(4-chlorophenylamino)-N-(3-(hydroxyamino)-3-oxopropyl)-5-methylthieno[2,3-d]pyrimidine-6-carboxamide] | 7 | 115.9% and 115.96% | 107.9% and 107.96% | 104.9% and 104.99% | 98.4% and 98.49% | 104.7% and 104.72% | 102.4% and 102.44% | 101.7% and 101.73% | 105.4% and 105.48% | 112.3% and 112.39% | 99.7% and 99.76% | 282 | 24.83 | 44.72 | 104.82 | 78 | –
Cc1c(C(=O)NCCC(=O)NO)sc2ncnc(Nc3ccc(F)c(Cl)c3)c12 [Compound 19d, 4–(3-chloro-4-fluorophenylamino)-N-(3-(hydroxyamino)-3-oxopropyl)-5-methylthieno[2,3-d]pyrimidine-6-carboxamide] | 2 | 107.2% | 104.7% and 104.71% | 105.3% and 105.34% | 99.4% and 99.43% | 105.2% and 105.23% | 101.8% and 101.85% | 102.3% and 102.36% | 101.4% and 101.46% | 108.8% and 108.82% | 101.5% and 101.58% | 276 | 19.56 | 44.43 | 104.37 | 96 | –
Cc1c(C(=O)NCCCC(=O)NO)sc2ncnc(Nc3ccccc3)c12 [Compound 20b, N-(4-(hydroxyamino)-4-oxobutyl)-5-methyl-4-(phenylamino)thieno[2,3-d]pyrimidine-6-carboxamide] | 21 | 111.2% and 111.26% | 112.3% and 112.35% | 113.5% and 113.55% | 89.6% and 89.65% | 102.7% and 102.73% | 97.6% and 97.62% | 96.8% and 96.85% | 100.6% and 100.67% | 105.4% and 105.47% | 100.2% and 100.23% | 205 | 14.62 | 40.59 | 102.91 | 92 | inhibition at 0.0001 µM (EGFR): 2%; inhibition at 0.001 µM (EGFR): 1%; inhibition at 0.01 µM (EGFR): 7%; inhibition at 0.1 µM (EGFR): 35%; inhibition at 1 µM (EGFR): 85%; pIC50 (EGFR): 6.81
